Measured values from patent US20090298103A1, “Predicting hemostatic risk; dependence on plasma composition” (The University of Vermont and State Agriculture College, priority 2008, published 2009).
Where two headings read alike, the source gives them in different places.

Tests used:
[1] = Light scattering measurement of Protein S depolymerization on Ca++ addition; assay type: physicochemical
Source text: Open squares: commercial PS and closed squares: in-house PS.
In regards to Protein S (PS) a Tf-based assay for PS in CTI-inhibited recalcified PS deficient plasma was developed. […] Dilutions of a normal plasma pool fall on this curve (open symbols). […] The convergence of plasma dilution data with the purified protein curve lends support of the preservation of natural PS quality in the material we isolate. The rate of depolymerization of Ca^++ free PS upon addition of Ca^++ using light scattering (FIG. 26B) was evaluated.

[2] = test system: thrombin formation after resupply; experiment: Synthetic coagulation proteome, resupply response (therapeutic anticoagulation); assay type: biochemical, human
Experimental: (§1) Synthetic Coagulation Model—The procedure used is a modification of Lawson et al. [Lawson, J. H., Kalafatis, M., Stram, S., and Mann, K. G. (1994) J. Biol. Chem. 269, 23357-23366] and van't Veer et al. [van't Veer, C. and Mann, K. G. (1997) J. Biol. Chem. 272, 4367-4377]. Relipidated Tf at 5 pM final concentration was added to a mixture of fII, fV, fVII, fVIIIa, fVIII, fIX, fX, fXI, TFPI, and AT (all at mean physiologic concentrations) (43) in 20 mM HEPES/150 mM NaCl (HBS) with 2 mM CaCl2 containing 2 μM PCPS. Pharmacologic agents were incorporated into the reaction mixture prior to addition of the Tf reagent. Resupply was conducted at 20 min post Tf initiation by the addition of an equal volume of a freshly constituted, Tf free mixture containing procofactors, zymogens and inhibitors in HBS with 2 mM CaCl2 and 2 μM PCPS to an ongoing reaction. Pharmacologic agents were present in the resupply mixture at twice their final concentration.
(§2) Thrombin generation over time was measured in a chromogenic assay using Spectrozyme TH and a THERMOmax microplate reader (Molecular Devices Corp., Menlo Park, Calif.). In experiments assessing the reversible thrombin inhibitor DAPA, rates of thrombin generation were calculated by reference to a standard curve relating thrombin concentration to rates of substrate hydrolysis in the presence of relevant DAPA concentrations.
Therapeutic Anticoagulation—We have previously reported that one outcome in closed model systems of Tf-initiated coagulation is the formation of a relatively stable prothrombin activating potential which responds to the introduction of a new supply of reactants with an immediate burst of thrombin production, i.e., a “resupply response” (see U.S. application Ser. No. 10/507,661). There is shown in FIGS. 32A-D and 33A-D computational (FIGS. 32A,C; FIGS. 33A,C) and representative empirical (FIGS. 32B,D; FIGS. 33B,D) assessments of the efficacy of each anticoagulant in suppressing the resupply response. Computational and empirical time courses of thrombin formation are shown for the final 5 min of the Tf-initiated process and for the resupply phase.

prothrombin = experiment: Western blot of prothrombin consumption during resupply in the synthetic coagulation proteome; assay type: biochemical, human
Experimental: Gel Electrophoresis and Western Blotting—Resupply time course samples were quenched into an equal volume of 50 mM EDTA, 50 μM FPRck in HBS and 4 μl aliquots (potentially containing 100 ng prothrombin) were made 2% in SDS and 2% in β-mercaptoethanol and analyzed by SDS-PAGE. Protein species were separated on 4 to 12% linear gradient gel and transferred to nitrocellulose membranes (Bio-Rad Laboratories Inc., US). FII and its activation products were probed for using a polyclonal burro anti-human prethrombin 1 antibody. Reactive bands were detected using goat anti-equine horseradish peroxidase conjugated IgG (Southern Biotechnology, Birmingham Ala.) with a chemiluminescence reagent (Perkin Elmer, Boston Mass.) and Kodak X-OMat film.
Prothrombin Consumption during Resupply—In FIGS. 32B, 32D and 33D, the estimates of UFH, Fpx and DAPA efficacy potentially represent a combination of 2 modes of anticoagulant action: their relative reactivity toward preformed catalytic complexes and their direct inhibition of thrombin formed during the reaction. […]

[3] = test system: Tf-initiated thrombin formation; experiment: Synthetic coagulation proteome, Tf-initiated thrombin generation (prophylactic anticoagulation); assay type: biochemical, human
Source text: Materials—Human coagulation fVII, fX, fIX, and prothrombin (fII), were isolated from fresh frozen plasma using the methods of Bajaj et al., and were purged of traces of active enzymes. FXI was purified using the monoclonal anti-fXI antibody α-fXI-2. Human fV and AT were isolated from freshly frozen plasma. The following were provided as gifts: recombinant fVIII and recombinant Tf (residues 1-242); recombinant human fVIIa; and recombinant full-length tissue factor pathway inhibitor (TFPI). Corn trypsin inhibitor (CTI) was isolated from popcorn. The preparation of the Tf/lipid reagent was performed. 1,2-Dioleolyl-sn-Glycero-3-Phospho-L-Serine (PS) and 1,2-Dioleoyl-sn-Glycero-3-Phosphocholine (PC) were purchased from Avanti Polar Lipids, Inc (Alabaster, Ala.), and EDTA was purchased from Sigma (St Louis, Mo.). Phospholipid vesicles (PCPS) composed of 75% PC and 25% PS and were prepared.
as §1, §2
Incorporation of Anticoagulants into the Mathematical Model—FIG. 27 presents the sets of equations describing the mechanisms of action of each of the anticoagulants used in this study and FIG. 28 presents the rate constants controlling the identified bimolecular interactions and the dosing ranges recommended for prophylactic and therapeutic applications. Details of modeling the various anticoagulant interactions are described herein and in the Methods section. Prophylactic Anticoagulation—There is shown in FIGS. 30A and 30 C computational assessments and in FIGS. 30B and D empirical assessments of the efficacy of each anticoagulant in suppressing the onset of Tf-initiated thrombin formation. In both empirical and computational studies, a 5 pM Tf reagent stimulus was used and thrombin generation assessed over 20 min. Results are presented that compare thrombin generation in the absence of anticoagulant (♦) to that observed over the range of anticoagulant concentrations that drive the transition from partial to maximum suppression of thrombin formation. […]

[4] = biological target: thrombin and meizotirombin (mIIa); details: cited from earlier work
fXa = fXa (Homo sapiens, UniProt P00742); details: cited from earlier work
Chain of fXa (P00742 235-488 limits assumed): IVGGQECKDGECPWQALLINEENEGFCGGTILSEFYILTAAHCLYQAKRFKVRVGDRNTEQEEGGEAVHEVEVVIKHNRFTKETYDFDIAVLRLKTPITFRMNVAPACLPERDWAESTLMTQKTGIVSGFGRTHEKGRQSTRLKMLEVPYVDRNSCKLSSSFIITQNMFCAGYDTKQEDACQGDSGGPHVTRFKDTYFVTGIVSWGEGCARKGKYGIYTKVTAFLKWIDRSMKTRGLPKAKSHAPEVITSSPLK
Chain of fXa (P00742 41-179 partner limits assumed): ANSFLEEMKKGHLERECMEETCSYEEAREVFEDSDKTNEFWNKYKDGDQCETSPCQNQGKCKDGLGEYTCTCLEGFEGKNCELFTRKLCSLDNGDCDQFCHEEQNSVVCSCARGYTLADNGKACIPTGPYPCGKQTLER

[5] = test system: contact pathway inhibited blood; experiment: Contact pathway inhibited whole blood, Tf-initiated TAT formation; assay type: biochemical, human; details: increasing concentrations incorporated into blood prior to Tf (5 pM)
Source text: (§3) Whole Blood Model—The protocol used is a modification of Rand et al. [Orfeo, T., Butenas, S., Brummel-Ziedins, K. E., and Mann, K. G. (2005) J. Biol. Chem. 280, 42887-42896; Rand, M. D., Lock, J. B., van't Veer, C., Gaffney, D. P., and Mann, K. G. (1996) Blood 88, 3432-3445]. A healthy donor was recruited, advised according to a protocol approved by the University of Vermont Human Studies Committee and their consent was obtained. […] Blood was drawn by venipuncture and immediately delivered into the reagent-loaded tubes. In general, 2 sets of aliquots of CTI treated blood were initiated with […] Tf reagent. One set was quenched at 1 min intervals while the other was incubated for 20 min. […] This resupply blood contained CTI alone (0.1 mg/ml), CTI+2 uM fondaparinux or CTI+320 nM C921-78. After the experiment, the tubes are centrifuged and the supernatants are aliquoted and analyzed for TAT levels. A subset of tubes containing either Fpx or C921-78 were initiated with 5 pM Tf reagent, quenched at 20 min and analyzed for TAT levels.
(§4) Anticoagulant Efficacy in Whole Blood—To test whether results from the computational and proteome based analyses would extrapolate to a more complex empirical model, the efficacy of anticoagulants in suppressing thrombin generation was addressed in contact pathway inhibited blood in both Tf-initiated and resupply regimens. […]

[6] = test system: contact pathway inhibited blood; experiment: Contact pathway inhibited whole blood, resupply; assay type: biochemical, human; details: 160 nM C921-78
Source text: as §3, §4

fXa in prothrombinase = fXa in prothrombinase (Homo sapiens, UniProt P00742); details: cited from earlier work
Chain of fXa in prothrombinase (P00742 235-488 limits assumed): as the sequence (P00742 235-488 limits assumed) above
Chain of fXa in prothrombinase (P00742 41-179 partner limits assumed): as the sequence (P00742 41-179 partner limits assumed) above
Chain of fXa in prothrombinase (P12259 29-737 partner limits assumed): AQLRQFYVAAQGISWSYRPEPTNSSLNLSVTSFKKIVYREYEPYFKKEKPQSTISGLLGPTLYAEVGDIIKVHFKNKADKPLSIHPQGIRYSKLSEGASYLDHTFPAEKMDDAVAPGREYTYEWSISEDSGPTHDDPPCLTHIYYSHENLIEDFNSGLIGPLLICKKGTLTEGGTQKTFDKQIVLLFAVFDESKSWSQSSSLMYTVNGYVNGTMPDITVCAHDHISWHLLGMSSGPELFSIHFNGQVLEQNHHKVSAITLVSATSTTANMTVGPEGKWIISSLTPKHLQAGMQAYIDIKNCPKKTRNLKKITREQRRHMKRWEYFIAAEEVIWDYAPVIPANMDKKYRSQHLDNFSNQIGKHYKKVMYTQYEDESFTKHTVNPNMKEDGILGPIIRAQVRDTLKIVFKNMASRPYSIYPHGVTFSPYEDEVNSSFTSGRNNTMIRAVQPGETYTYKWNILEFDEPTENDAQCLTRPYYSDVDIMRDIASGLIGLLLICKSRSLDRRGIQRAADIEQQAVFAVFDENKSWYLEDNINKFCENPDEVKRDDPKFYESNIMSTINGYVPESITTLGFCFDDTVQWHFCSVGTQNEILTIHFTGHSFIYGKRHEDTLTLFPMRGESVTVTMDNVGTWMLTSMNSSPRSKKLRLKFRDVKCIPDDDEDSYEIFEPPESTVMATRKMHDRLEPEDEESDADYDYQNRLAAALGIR
Chain of fXa in prothrombinase (P12259 1574-2224 partner limits assumed): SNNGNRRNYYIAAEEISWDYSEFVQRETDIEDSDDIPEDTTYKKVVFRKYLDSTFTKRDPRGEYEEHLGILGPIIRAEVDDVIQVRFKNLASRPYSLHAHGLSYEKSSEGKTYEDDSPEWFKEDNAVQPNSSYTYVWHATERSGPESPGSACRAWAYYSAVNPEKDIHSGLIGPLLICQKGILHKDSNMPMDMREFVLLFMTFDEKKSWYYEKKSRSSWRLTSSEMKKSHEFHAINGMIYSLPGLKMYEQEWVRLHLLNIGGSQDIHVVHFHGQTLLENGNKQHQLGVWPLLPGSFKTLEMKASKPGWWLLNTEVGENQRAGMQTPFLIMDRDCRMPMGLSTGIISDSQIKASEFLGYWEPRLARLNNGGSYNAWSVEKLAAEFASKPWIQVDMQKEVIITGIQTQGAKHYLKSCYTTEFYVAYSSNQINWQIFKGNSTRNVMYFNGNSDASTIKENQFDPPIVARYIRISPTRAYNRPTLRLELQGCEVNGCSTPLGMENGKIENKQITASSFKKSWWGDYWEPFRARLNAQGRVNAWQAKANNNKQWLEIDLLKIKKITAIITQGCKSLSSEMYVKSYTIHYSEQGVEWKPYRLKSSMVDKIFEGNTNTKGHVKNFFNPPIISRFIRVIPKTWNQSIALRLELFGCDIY

fVIIa = biological target: T1, fVIIa (Homo sapiens, UniProt P08709); experiment: Factor VIIa titrations of Tf proteins in the absence of lipid; assay type: biochemical; details: in complex with fVIIa, Tf 0.1 nM, no lipid
T1 construct: Novo Nordisk (gift)
T1 sequence (P08709 213-466 limits assumed, one chain of several): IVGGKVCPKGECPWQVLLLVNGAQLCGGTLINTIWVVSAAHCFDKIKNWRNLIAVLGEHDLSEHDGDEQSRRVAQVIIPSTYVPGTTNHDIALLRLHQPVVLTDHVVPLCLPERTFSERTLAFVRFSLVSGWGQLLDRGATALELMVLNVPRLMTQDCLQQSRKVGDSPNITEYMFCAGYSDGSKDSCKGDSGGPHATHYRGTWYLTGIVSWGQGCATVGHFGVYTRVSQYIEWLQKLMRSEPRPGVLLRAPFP
T1 sequence (P08709 61-212 partner limits assumed, one chain of several): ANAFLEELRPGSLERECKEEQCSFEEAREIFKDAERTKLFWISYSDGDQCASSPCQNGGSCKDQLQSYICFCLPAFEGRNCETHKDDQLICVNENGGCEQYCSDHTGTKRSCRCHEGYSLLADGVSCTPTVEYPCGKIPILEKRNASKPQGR
Experimental: FIG. 24 is a graphical view of factor VIIa titrations of recombinant Tf (rTf) 1-263, rTf 1-242 and human placental Tf (all at 0.1 nM) in the absence of lipid.
Reports of physical studies of Tf have made use of SDS-PAGE, amino acid analyses and presumed stoichiometry of binding. In a most recent review, a Tf molecular weight of 47 kDa is cited, introducing a 30% error for any experimental physical parameter regarding Tf and its interactions. Tf proteins are distinguished by functional activities in simple as well as in complex reaction systems (FIGS. 24, 25).

thrombin generation = experiment: Thrombin generation in reconstituted coagulation platelet proteome; assay type: biochemical, human
Source text: FIG. 25 is a graphical view of thrombin generation in synthetic plasma with platelets (2×10^8/ml). Notice monocyte in situ and monocyte purified.

For “commercial preparation of PS (ERL): commercial preparation of Protein S (ERL)”, the depolymerization behavior ([1]; commercial preparation (ERL)) was “does not show this depolymerization behavior”.

With `CCC1CCN(C(=O)C(CCCNC(=N)N)NS(=O)(=O)c2cccc3c(N(C)C)cccc23)CC1` (stereo not shown) [DAPA, dansylarginine-N-[3-ethyl-1,5-pentanediyl]amide] the “difference in rate or maximum final level of IIa=DAPA between the 2 DAPA concentrations” value ([2]; 10 μM vs 100 μM DAPA) was “No substantial difference in rate or maximum final level”, the “blocking prothrombin consumption in the resupply format” value (prothrombin; DAPA) was “completely ineffective” and the “effect on prothrombin consumption” value ([3]; 20 μM DAPA) was “only attenuating the maximum rate of prothrombin consumption”. For the same molecule, the total prothrombin consumption ([3]; 100 μM DAPA) was ~20 nM, the Kd ([4]; thrombin and meizothrombin) was 20 to 40 nM and the Kd ([4]; value used in the model (FIG. 27)) was 40 nM.

For “PS: purified in-house Protein S preparation”, the “half time of depolymerization of Ca++ free PS upon addition of Ca++” value ([1]; 25° C.) was “approximately 100 s”.

For `N=C(N)NCCCC(NS(=O)(=O)c1ccccc1)C(=O)NCC(=O)NC(CCCNC(=N)N)C(=O)c1nccs1` [C921-78, Benzenesulfonyl-D-Arg-Gly-Arg-ketothiazole], the maximum thrombin levels ([2]; 70 nM C921-78) was 35 nM, the “time of maximum thrombin level post resupply” value ([2]; 70 nM C921-78) was 4 min and the maximum thrombin levels ([2]; 100 nM C921-78) was ~25 nM. The “time of maximum thrombin level post resupply” value ([2]; 100 nM C921-78) was 10 min, the “delay of thrombin generation” value ([2]; 160 nM C921-78) was 11 min and the maximum thrombin levels ([2]; 160 nM C921-78) was 14 nM. The Kd (fXa) was ~0.014 nM, the “prothrombin consumption at 15 min” value (prothrombin; 160 nM C921-78, densitometric analyses) was ~10% and the “displacing the onset of thrombin generation” value ([3]; 1 nM C921-78) was “somewhat more effective than computationally predicted”. For the same molecule, the “effects on maximum rate and concentrations of IIa” value ([3]; 1 nM C921-78) was “minimal effects”, the thrombin generation ([3]; 10 nM C921-78) was “completely suppressed” and the “TAT levels at 20 min” value [5] was “decreases in TAT levels”. The “prothrombin consumption (immunoblots)” value [6] was “minimal” and the Kd (fXa in prothrombinase) was 0.022 nM.

With “placental Tf: natural human placental tissue factor isolated by monoclonal antibody procedure” the “Kd compared with the recombinant proteins” value (fVIIa) was “lower Kd” and the “Vmax compared with the recombinant proteins” value (fVIIa) was “higher Vmax”.

B1: monocyte Tf: tissue factor from THP-1 monocytes after stimulation with LPS (protein, UniProt P13726 33-295, looked up)
Tissue factor: SGTTNTVAAYNLTWKSTNFKTILEWEPKPVNQVYTVQISTKSGDWKSKCFYTTDTECDLTDEIVKDVKQTYLARVFSYPAGNVESTGSAGEPLYENSPEFTPYLETNLGQPTIQSFEQVGTKVNVTVEDERTLVRRNNTFLSLRDVFGKDLIYTLYYWKSSSSGKKTAKTNTNEFLIDVDKGENYCFSVQAVIPSRTVNRKSTDSPVECMGQEKGEFREIFYIIGAVVFVVIILVIILAISLHKCRKAGVGQSWKENSPLNVS
For B1, the “activity relative to monocyte Tf reconstituted on synthetic membranes” value (thrombin generation) was ~400 ×.
